Experimental findings from ChEMBL document CHEMBL1201862, “PubChem BioAssay data set” (2004) are described below.

Each structure is given as a SMILES string. Active and inactive are the calls of the source. Where only a bound is given, the exact number is not on record here.

Test [1] can be described thus: HEK-293T cell viability reduction – luminescence, B-cell screen hits, cytotoxicity control for BCR NF-kB inhibitor project, dose response (AID 489021).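 Further: HEK-293T cells carrying an NF-kB luciferase reporter; cells exposed to compound for about 14 hours before viability readout.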 It counts as functional, cell-based.
The nature of a further test: cells. It counts as functional.
The target of a further test is Troponin, cardiac muscle (Homo sapiens, UniProt P19429+P45379+P63316). The experiment in a line: Fluorescence-based biochemical high throughput dose response assay for activators of the calcium sensitivity of cardiac Regulated Thin Filaments (RTF). [Related pubchem assays (depositor defined):AID493008, AID493018, AID504382, AID504383]. It counts as protein-complex assay.

Another test has as its system Escherichia coli. Description: microbe, parasite or virus in culture.
Test [2] is described as follows: A cytotoxicity screen of small molecule inhibitors of the PhoP region in Salmonella typhi identified in the primary screen. [Related pubchem assays: 1850, 1864, 1985 ]. The class given is functional.
Test [3] can be described thus: Trypanosoma cruzi growth suppression in host cells – NIH3T3 host cells, beta-gal luminescence, confirmation (AID 2044).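 Further: intracellular parasites grown in NIH/3T3 mouse fibroblasts as host cells; luminescent beta-galactosidase reporter signal from transgenic T. cruzi replicating inside host cells; inhibitors lower the luminescence signal.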 It counts as functional, cell-based.
A short description of test [4]: NIH3T3 cell viability loss – ATP luminescence, mouse fibroblasts, counter-screen, dose response (AID 2010).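 Further: cells exposed to compound for about 90 hours before reading.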 The class given is functional, cell-based. (A counterscreen serves to expose hits that act by an unwanted route or on another target.)
A short description of test [5]: viability loss in THP-1 monocytes – THP-1 cells, cytotoxicity control for Vif-APOBEC3G degradation inhibitor project, dose response (AID 1117359). It counts as functional. The following applies: THP-1.
The target of test [6] is Eukaryotic translation initiation factor 4E (Mus musculus, UniProt P63073). Description: blockers of eIF4G binding by eIF4E – biochemical, TR-FRET, dose response (AID 855).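 Further: potency for disrupting eIF4E binding to eIF4GI seen as loss of FRET.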 It counts as functional.
Test [7] addresses T1, Replicative DNA helicase DnaB (Mycobacterium tuberculosis, UniProt P9WMR3).
T1 sequence (P9WMR3 whole entry): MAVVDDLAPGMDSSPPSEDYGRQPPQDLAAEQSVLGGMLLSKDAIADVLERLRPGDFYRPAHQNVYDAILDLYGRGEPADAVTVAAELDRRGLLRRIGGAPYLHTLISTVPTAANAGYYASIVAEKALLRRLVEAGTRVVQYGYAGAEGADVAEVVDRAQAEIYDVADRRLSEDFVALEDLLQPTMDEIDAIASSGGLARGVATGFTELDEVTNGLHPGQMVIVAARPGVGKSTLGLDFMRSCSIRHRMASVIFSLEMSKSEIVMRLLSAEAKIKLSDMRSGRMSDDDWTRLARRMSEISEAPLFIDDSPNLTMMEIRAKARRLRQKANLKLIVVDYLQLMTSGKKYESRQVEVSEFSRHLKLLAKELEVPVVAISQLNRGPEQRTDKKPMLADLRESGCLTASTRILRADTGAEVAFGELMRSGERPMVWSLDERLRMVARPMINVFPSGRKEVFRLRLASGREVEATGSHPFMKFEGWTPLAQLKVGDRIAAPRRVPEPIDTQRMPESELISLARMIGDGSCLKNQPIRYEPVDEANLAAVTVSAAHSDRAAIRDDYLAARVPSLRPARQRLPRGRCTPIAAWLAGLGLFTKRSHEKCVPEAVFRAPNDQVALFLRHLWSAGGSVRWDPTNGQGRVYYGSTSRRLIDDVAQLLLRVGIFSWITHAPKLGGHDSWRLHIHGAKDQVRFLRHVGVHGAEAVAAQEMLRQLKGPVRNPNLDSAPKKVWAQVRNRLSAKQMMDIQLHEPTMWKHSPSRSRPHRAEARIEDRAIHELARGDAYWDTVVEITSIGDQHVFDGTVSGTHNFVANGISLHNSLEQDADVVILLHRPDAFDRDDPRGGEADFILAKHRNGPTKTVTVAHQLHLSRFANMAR
Description: DnaB intein splicing inhibitors, dose response, biochemical, cell-free fluorescence (AID 449749). It counts as functional.

Test [8] is described as follows: Luminescence Cell-Based Dose Confirmation HTS to Identify Activators of 5'UTR Stem-Loop Driven Alpha-Synuclein mRNA Translation in H4 Neuroglioblastoma Cells. [Related pubchem assays: 1829 (Project Summary), 1814 (Primary HTS)]. The class given is functional.
The subject of a further test is H4. The experiment in a line: Luminescence Cell-Based Dose Response HTS to Identify Activators of 5'UTR Stem-Loop Driven Prion Protein mRNA Translation in H4 Neuroglioblastoma Cells. [Related pubchem assays: 1829 (Project Summary), 1814 (Primary HTS)]. It counts as functional. The following applies: Homo sapiens.
The next test addresses T2, Protein RecA (Mycobacterium tuberculosis, UniProt P9WHJ3).
T2 sequence (P9WHJ3 whole entry): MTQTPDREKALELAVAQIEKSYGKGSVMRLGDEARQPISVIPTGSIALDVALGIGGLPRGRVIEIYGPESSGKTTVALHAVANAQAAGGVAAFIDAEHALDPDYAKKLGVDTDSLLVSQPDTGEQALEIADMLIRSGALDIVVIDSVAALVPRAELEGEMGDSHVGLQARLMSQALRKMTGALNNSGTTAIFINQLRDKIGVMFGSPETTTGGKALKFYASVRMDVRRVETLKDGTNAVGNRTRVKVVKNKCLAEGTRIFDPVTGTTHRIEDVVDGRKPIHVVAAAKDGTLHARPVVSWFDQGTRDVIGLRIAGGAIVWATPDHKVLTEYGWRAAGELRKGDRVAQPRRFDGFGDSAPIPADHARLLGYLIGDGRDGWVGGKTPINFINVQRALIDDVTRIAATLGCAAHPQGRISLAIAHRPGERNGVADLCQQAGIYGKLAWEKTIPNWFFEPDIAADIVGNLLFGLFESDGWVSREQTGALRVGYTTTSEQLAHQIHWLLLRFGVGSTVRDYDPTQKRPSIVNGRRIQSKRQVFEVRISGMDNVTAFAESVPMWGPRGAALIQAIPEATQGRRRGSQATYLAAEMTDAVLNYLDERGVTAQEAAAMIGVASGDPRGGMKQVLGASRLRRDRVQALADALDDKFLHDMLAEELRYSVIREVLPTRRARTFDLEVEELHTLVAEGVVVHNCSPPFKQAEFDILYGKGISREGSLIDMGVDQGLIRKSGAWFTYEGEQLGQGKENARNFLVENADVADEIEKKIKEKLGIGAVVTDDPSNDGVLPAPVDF
The experiment in a line: Fluorescence Cell-Free Homogeneous Dose Retest to Identify Inhibitors of RecA-Intein Splicing Activity. [Related pubchem assays (depositor defined):AID2097, AID2223, AID489010, AID492950]. The class given is functional.

Test [9] can be described thus: Luminescence Cell-Based Dose Response HTS to Identify Activators of Luciferase Translation or Activity in H4 […] Cells. [Related pubchem assays: 1829 (Project Summary), 1814 (Primary HTS)]. The class given is functional.
The next test deals with Vero. Description: cells. The class given is functional. The note with it: Chlorocebus sabaeus.
A short description of test [10]: viability of uninfected HEp-2 cells – cell-based, HTS, cytotoxicity control for RSV inhibitor project, dose response (AID 2410). The class given is functional. The note with it: human respiratory syncytial virus.
Test [11] addresses Glyceraldehyde-3-phosphate dehydrogenase (Homo sapiens, UniProt P04406).
In test [12] the target is T3, SUMO-activating enzyme (Homo sapiens, UniProt Q9UBT2). Description: blockers of UBC9-mediated SUMO conjugation – biochemical, AlphaScreen, SUMOylation inhibitor project, confirmation (AID 2018). The class given is functional. (Bead proximity is the source of the signal in Alpha formats.)
Test [13] has as its target T3, SUMO-activating enzyme. The experiment in a line: blockers of SAE1/SAE2–UBC9 SUMO transfer – biochemical, HTRF, uHTS, primary screen (AID 2006). It counts as protein-complex assay. (Time-resolved FRET reads energy transfer from a long-lived donor to a nearby acceptor.)
Test [14] concerns the target Heat shock protein HSP 90-alpha (Homo sapiens, UniProt P07900). It counts as functional, organism-based.
A further test addresses T4, Protein skinhead-1 (Caenorhabditis elegans, UniProt P34707).
T4 sequence (P34707 whole entry): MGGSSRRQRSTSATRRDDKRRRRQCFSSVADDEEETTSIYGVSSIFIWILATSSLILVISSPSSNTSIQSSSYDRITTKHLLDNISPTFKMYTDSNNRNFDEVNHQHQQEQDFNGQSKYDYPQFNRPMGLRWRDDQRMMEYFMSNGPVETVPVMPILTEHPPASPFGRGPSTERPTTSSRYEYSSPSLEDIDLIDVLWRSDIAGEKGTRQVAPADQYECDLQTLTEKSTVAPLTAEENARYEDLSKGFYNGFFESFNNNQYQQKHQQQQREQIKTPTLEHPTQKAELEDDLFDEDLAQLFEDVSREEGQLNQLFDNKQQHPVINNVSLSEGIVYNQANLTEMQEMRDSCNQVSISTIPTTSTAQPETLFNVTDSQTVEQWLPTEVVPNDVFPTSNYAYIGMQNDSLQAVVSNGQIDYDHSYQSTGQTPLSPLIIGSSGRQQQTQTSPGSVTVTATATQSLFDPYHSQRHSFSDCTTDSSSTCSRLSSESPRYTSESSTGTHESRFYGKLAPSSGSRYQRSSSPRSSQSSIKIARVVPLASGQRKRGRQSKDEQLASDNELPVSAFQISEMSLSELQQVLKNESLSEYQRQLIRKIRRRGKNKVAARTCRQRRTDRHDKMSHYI
It counts as functional.

As usually defined, the IC50 is the point on the concentration scale where inhibition reaches its midpoint. Take `Cc1cc(C)c2nc(NC(=O)[C@@H](NC(=O)c3cccc(S(=O)(=O)N4CCOCC4)c3)C(C)C)sc2c1`: the IC50 in test [1] was > 80 µM (inactive).
On to `COc1ccc(-c2nc3ccc(C)cc3c(=O)o2)cc1OC`, for which the IC50 in “cells” was 7.49 µM (active).
By EC50 is commonly meant the concentration that produces a half-maximal response. As for `O=C(Nc1ccccc1)NC1CS(=O)(=O)CC1O` (centres undefined), the EC50 at Troponin, cardiac muscle was > 71.5 µM (inactive).
In general, AC50 refers to the concentration at which the activity in the assay is half-maximal. In the case of `O=C(Nc1ccc2c(c1)OCCO2)C1CCCN(S(=O)(=O)c2cccnc2)C1` (centres undefined), the AC50 with Escherichia coli is 52.7 µM (active).
In the case of `O=C(CCNS(=O)(=O)c1cccc2nonc12)N1CCN(c2cccc(Cl)c2)CC1`, the half-maximal effective concentration (EC50) in test [2] was > 50 µM (active).
As to `O=C(NC1CC1)c1ccc(N2CCCCC2)c([N+](=O)[O-])c1`, the AC50 in the test on Escherichia coli is 73.1 µM (active).
As usually defined, the CC50 is the concentration giving 50% cytotoxicity. For `CCN1CCN(c2ccc(S(=O)(=O)N3CCCCC3)cc2NC(=O)Cc2ccc(Cl)c(Cl)c2)CC1`, the EC50 in test [3] is 0.162 µM (active); in test [4], 6.52 µM (active). The CC50 in test [5] was 21.2 µM (active).
With `NC(=O)NC(=O)COC(=O)c1cccc(NS(=O)(=O)/C=C/c2ccccc2)c1`, in test [6], the IC50 was 50 µM (inactive). Besides, the EC50 on Troponin, cardiac muscle is > 71.5 µM (inactive).
In the case of `CC(C)c1n[nH]c2c1C(c1ccco1)C(C#N)=C(N)O2` (centres undefined), the AC50 in test [7] is 32.4 µM (active). Further, the EC50 in test [8] was > 120 µM (not active); with H4, 92.5 µM (active); at Protein RecA it was 3.05 µM (active); in test [9], > 120 µM (not active). The IC50 in [1] is > 80 µM (inactive).
In the case of `CC(=O)c1c(C)[nH]c(C(=O)CSc2nnc3ccccn23)c1C`, the AC50 in the test on Escherichia coli was 27 µM (active).
Take `CC(C)(C)Nc1c2ccccc2nc2ccccc12`: the EC50 in test [2] is > 50 µM (active).
In the case of `O=C(COC(=O)c1ccc(O)cc1O)c1ccc2c(c1)OCO2`, in the test “cells”, the IC50 is 18.2 µM (active).
In the case of `Cc1nc([N+](=O)[O-])c(Sc2nc3ccccc3n2C)n1Cc1ccccc1`, the cytotoxic concentration (CC50) with Vero was 20.8 µM (active); in [10] it was 13.5 µM (active).
As to `CCN(CC)CCOC(=O)c1ccc(NC(=O)CCCN2C(=O)S/C(=C/c3ccc(OC)cc3)C2=S)cc1`, the IC50 in [1] was > 80 µM (inactive).
For `C[C@H]1CN(C2=C(Cl)C(=O)N(c3ccc(C(F)(F)F)cc3)C2=O)CCN1`, the IC50 in test [11] was > 50 µM (inconclusive).
Take `NC(=O)CC(NC(=O)Cc1ccc(Br)cc1)c1ccc(N2CCC(Br)CC2)c([N+](=O)[O-])c1` (centres undefined): the 50% inhibitory concentration (IC50) on SUMO-activating enzyme [12] was 28.3 µM (active); at SUMO-activating enzyme [13] it was 34.5 µM (active).
Regarding `N=c1c(C(=O)NC2CCCC2)cc2c(=O)n3ccccc3nc2n1CCN1CCOCC1`, the IC50 in test [1] was > 80 µM (inactive).
Same read-out and setting: to `COC(=O)C(C)Oc1cc(C)cc2oc(=O)c3c(c12)CCC3` (centres undefined) belongs > 80 µM (inactive).
Regarding `O=C(Cc1ccc(F)cc1)NC1CCCC1`, the EC50 in test [2] was > 50 µM (active).
Take `O=C1C(Cl)=C(N2CCN(Cc3ccc4c(c3)OCO4)CC2)C(=O)N1c1ccc(Cl)nc1`: the IC50 in [11] is > 50 µM (inconclusive).
Regarding `N#C/C(=C\c1ccc([N+](=O)[O-])o1)C(=O)Nc1ccc(F)cc1`, in test [14], the half-maximal activity concentration (AC50) is 0.444 µM (active). Also, in test [5], the CC50 is > 40 µM (active).
Regarding `CCOc1ccccc1NC(=O)Nc1ccncc1`, in [2], the EC50 is > 50 µM (active).
For the molecule `N#Cc1ccc(S(=O)(=O)NC2CCCCNC2=O)cc1` (centres undefined), the EC50 on Troponin, cardiac muscle is > 71.4 µM (inactive).
As for `O=C(CSC1=NS(=O)(=O)c2ccccc2N1)N1CCCCC1`, the EC50 on Troponin, cardiac muscle is > 71.5 µM (inactive).
As to `COc1ccc(-c2[nH]ncc2CNC(C)c2ccccc2Cl)cc1F` (centres undefined), the half-maximal cytotoxic concentration (CC50) in the test on Vero was > 25 µM (active).
Take `Cc1cs/c(=N\c2cccnc2)n1CC1CCCCC1`: the half-inhibitory concentration (IC50) in “cells” was > 50 µM (active).
As to `O=[N+]([O-])c1ccc2nc(-c3ccccc3)oc2c1`, the CC50 in [5] is > 40 µM (active). Further, the IC50 at Protein skinhead-1 was 63.6 µM (inactive).
